Laboratory results published in paper PMC8160850 (Viruses, 2021).
Values joined by “and” are separate entries in the source; they are usually repeats but may differ in a detail not shown here. Equal values may be shown once. Read-outs that look alike come from different tables or passages of the source.

Key:
MRC5 cells [1] = format: cell-based
[2] = MTT cell cytotoxicity assay; format: cell-based; conditions: human, uninfected MRC5 cells, MTT, uninfected MRC5, 7 days
MRC5 cells [3] = test: MTT cell cytotoxicity assay; format: cell-based; conditions: for Cytotoxicity (in words): MRC5, up to 100 μM, 7 days; for Selectivity index (SI), CC50/ED50: MTT CC50 / FRA ED50 TB4-UL83-EYFP
HCMV TB4-UL83-EYFP [4] = format: cell-based, human cytomegalovirus (HCMV); conditions: 7 days p.i., MOI 0.03 IU/cell
MRC5 cells [5] = test: Cell viability of uninfected cells in the screening; format: cell-based; conditions: 7 days
MRC5 cells [6] = test: Intracellular ATP quantification; format: cell-based; conditions: for Reduction of intracellular ATP levels: 100 μM
AD169-GFP [7] = test: FRA with AD169-GFP in MRC5 cells; format: cell-based, human cytomegalovirus (HCMV); conditions: MRC5, MOI 0.05 IU/cell, 7 days, n = 6
AD169-GFP26 (UL97 M460I) [8] = test: Virus yield reduction assay (VYRA) with AD169-GFP26; format: cell-based, human cytomegalovirus (HCMV); conditions: AD169-GFP26 (GCV-resistant), n = 4
hepatitis C virus (HCV) = system: hepatitis C virus (HCV); parameters: method as in earlier work; conditions: Huh7-Lunet cells ref 60; cited from earlier work
[9] = system: HCMV AD169 gene expression (IE1, ppUL44, pp65, pp28); test: Analysis of HCMV gene expression by Western blotting in infected MRC5 cells; format: cell-based, human cytomegalovirus (HCMV); conditions: GCV 16 μM, B3 50 μM; for IE1 expression: 6 and 12 h p.i., AD169 MOI 2 IU/cell; for Expression of ppUL44 and pp65: 48 h p.i.; for pp28 expression: 72 h and 96 h p.i.; for ppUL44 and pp65 levels: up to 24 h p.i.
HCMV AD169 = test: Plaque reduction assay (PRA) in HFF cells; format: cell-based, human cytomegalovirus (HCMV)
[10] = system: HCMV TB4-UL83-EYFP genome; test: Analysis of HCMV DNA replication by qPCR in infected MRC5 cells; format: cell-based, human cytomegalovirus (HCMV); conditions: for Decrease in viral genome copy number: B3 50 μM, MOI 0.01 IU/cell
AD169-GFP [11] = test: Virus yield reduction assay (VYRA) with AD169-GFP; format: cell-based, human cytomegalovirus (HCMV); conditions: n = 4
AD169-GFP26 (UL97 M460I) [12] = test: FRA with GCV-resistant AD169-GFP26 in MRC5 cells; format: cell-based, human cytomegalovirus (HCMV); conditions: MRC5, MOI 0.05 IU/cell, 7 days, n = 6
HCMV TB4-UL83-EYFP [13] = test: Dose-response fluorescence reduction assay; format: cell-based, human cytomegalovirus (HCMV); conditions: FRA, MRC5, MOI 0.03 IU/cell, 7 days p.i.

| Compound | CC50 at 7 days [2] | Cytotoxicity (in words) (MRC5 cells [3]; MTT) | Reduction of intracellular ATP levels (MRC5 cells [6]; 24 h post treatment) | ED50 (AD169-GFP [7]) | Selectivity index (SI), CC50/ED50 (MRC5 cells [3]) | ED50 (AD169-GFP26 (UL97 M460I) [8]) | Inhibition of viral replication (YFP fluorescence) (HCMV TB4-UL83-EYFP [4]; 10 μM) | IE1 expression [9] | Expression of ppUL44 and pp65 [9] | pp28 expression [9] | ppUL44 and pp65 levels [9] | ED50 (HCMV AD169) | ED50 (AD169-GFP [11]) | ED50 (AD169-GFP26 (UL97 M460I) [12]) | other results |
| --- | --- | --- | --- | --- | --- | --- | --- | --- | --- | --- | --- | --- | --- | --- | --- |
| O=C(O)C[C@H]1S/C(=N/N=C/c2c(OCc3ccccc3Cl)ccc3ccccc23)NC1=O [C6] | > 100 µM | low cytotoxicity | more than 30% | – | – | – | – | – | – | – | – | – | – | – | Cell morphology upon microscopic evaluation (MRC5 cells [1]): significantly altered; Inhibition of viral replication (YFP fluorescence) (HCMV TB4-UL83-EYFP [4]; 100 μM): impaired viral replication; Reduction of cell viability (MRC5 cells [5]; 100 μM, MTS and CellTiter Glo): ≤ 40% |
| CCOc1ccccc1[C@H]1C(C#N)=C(SCC(=O)OC)NC(=O)[C@@H]1C#N [A4] | – | – | – | – | – | – | – | – | – | – | – | – | – | – | Solubility in culture medium (precipitates) (MRC5 cells [1]): not soluble; Cytotoxicity (MRC5 cells [5]; 10 μM, uninfected MRC5): caused evident cytotoxicity |
| OC[C@@H](O)Cn1c(Cc2cccc3ccccc23)nc2ccccc21 [B3] | > 100 µM | did not cause evident cytotoxicity up to 100 μM | – | 7.9 µM and 7.9 ± 2.7 µM | > 20 | 9.8 ± 15.6 µM | inhibited viral replication | neither GCV nor B3 treatment affected IE1 expression | decrease | strongly inhibited | not affected | 7.9 ± 3.5 µM | 5.1 ± 3.3 µM | 17.6 ± 12.8 µM | Effect on protein expression and hepatitis C virus replication (hepatitis C virus (HCV)): did not affect either protein expression nor hepatitis C virus replication; Decrease in viral genome copy number ([10]; 72 h p.i.): ~ 4 fold; Decrease in viral genome copy number ([10]; 120 h p.i.): 6 fold; Effect on intracellular ATP levels (MRC5 cells [6]; all time points analyzed (24, 72, 144 h)): minimal effects |
| Cc1ccc(-c2nnc(Nc3ccc(CC(N)=O)cc3)c3ccccc23)cc1S(=O)(=O)NC1CCCCC1 [B6] | ~10 µM | – | more than 50% | – | < 5 | – | inhibited viral replication | – | – | – | – | – | – | – | ED50 (HCMV TB4-UL83-EYFP [13]): 2.1 ± 0.6 µM; CC50 (MRC5 cells [3]; MTT, uninfected MRC5, 7 days): 10.7 ± 2.3 µM; Reduction of intracellular ATP levels (MRC5 cells [6]; 72 h post treatment): ~100% |
| Nc1nc(O)c2ncn(COC(CO)CO)c2n1 [GCV, Ganciclovir, reference compound] | > 100 µM | did not cause detectable cytotoxic effects at any concentration tested | – | 2.3 µM and 2.3 ± 1.9 µM | – | 4.7 ± 4.8 µM | – | neither GCV nor B3 treatment affected IE1 expression | decrease | strongly inhibited | not affected | 1.3 ± 0.9 µM | 0.7 µM and 0.7 ± 0.4 µM | 21.7 ± 9.6 µM | Viral genome copy number (in words) ([10]; GCV 16 μM, starting from 72 h p.i.): significantly reduced viral genome copy number |
